# From publication PMC10145285, “Diverse Biological Activity of Benzofuroxan/Sterically Hindered Phenols Hybrids” (Pharmaceuticals, 2023)
# Legend:
# [1] = system: PC3; assay: cells; type: cell-based; conditions: Homo sapiens, PC-3, 48 h, read-out: IC50, PC3
# [2] = system: Staphylococcus aureus ATCC 6538P FDA 209P (Sa); assay: Antimicrobial serial microdilution, Sa; type: cell-based; conditions: for MIC / MBC: Staphylococcus aureus; for MIC: read-out: Minimum Inhibitory Concentration (MIC), Sa; for MBC: read-out: Minimum bactericidal and fungicidal concentrations (MBC), (MFC), Sa
# [3] = system: WI38; assay: cells; type: cell-based; conditions: Homo sapiens, WI-38, 48 h, read-out: IC50, WI38
# [4] = system: MRSA-2; assay: Antimicrobial serial microdilution, MRSA-2; type: cell-based, Staphylococcus aureus; conditions: for MIC: read-out: Minimum Inhibitory Concentration (MIC), MRSA-2
# [5] = system: M-HeLa; assay: cells; conditions: Homo sapiens, 48 h, read-out: IC50, M-HeLa
# [6] = system: M-HeLa
# [7] = system: Bacillus cereus ATCC 10702 (Bc); assay: Antimicrobial serial microdilution, Bc; type: cell-based; conditions: for MIC: ATCC10702, read-out: Minimum Inhibitory Concentration (MIC), Bc
# [8] = system: HuTu 80; assay: cells; conditions: Homo sapiens, HuTu80, 48 h, read-out: IC50, HuTu 80
# [9] = system: PANC-1; assay: cells; conditions: Homo sapiens, PANC-1, 48 h, read-out: IC50, PANC-1
# [10] = system: Chang Liver; assay: cells; conditions: Homo sapiens, 48 h, read-out: IC50, Chang Liver
# [11] = system: MRSA-1; assay: Antimicrobial serial microdilution, MRSA-1; type: cell-based, Staphylococcus aureus; conditions: for MIC / MBC: Staphylococcus aureus, MRSA; for MIC: read-out: Minimum Inhibitory Concentration (MIC), MRSA-1; for MBC: read-out: Minimum bactericidal and fungicidal concentrations (MBC), (MFC), MRSA-1
# [12] = system: A375; assay: cells; type: cell-based; conditions: Homo sapiens, A-375, 48 h, read-out: IC50, A375
# [13] = system: A549; assay: cells; conditions: Homo sapiens, A549, 48 h, read-out: IC50, A549
# [14] = system: M-HeLa cells; assay: Intracellular ROS, CellROX Deep Red flow cytometry; type: cell-based, human; conditions: concentration equal to IC50 cytotoxicity on M-HeLa, 48 h; result in words
# Description: Apoptosis can be induced in various ways, including an increase in the production of reactive oxygen species (ROS) in the cell, with subsequent oxidative stress and destruction of membrane lipids, proteins and nucleic acids. Thus, chemical compounds that disturb the redox balance and lead to the production and accumulation of ROS are potential agents for targeting the transformed cells. To understand the possible synergy between the different components of these hybrid agents, we compared the ROS production for compounds 4c, 5d, starting phenols 2c, 2d and furoxan 3 at the concentration of IC50 cytotoxicity on M-HeLa cells (Figure 4). A significant increase in CellROX® Deep Red fluorescence intensity indicates an increase in ROS production.
# Detection of Intracellular ROS. […] ROS generation was investigated using flow cytometry assay and CellROX® Deep Red flow cytometry kit. For this M-HeLa cells were harvested at 2000 rpm for 5 min and then washed twice with ice-cold PBS, followed by resuspension in 0.1 mL of medium without FBS, to which was added 0.2 μL of CellROX® Deep Red and incubated at 37 °C for 30 min. After three times washing the cells and suspending them in PBS, the production of ROS in the cells was immediately monitored using flow cytometer (Guava easy Cyte, Merck, Rahway, NJ, USA).
# [15] = system: Enterococcus faecalis ATCC 29212 (Ef); assay: Antimicrobial serial microdilution, Ef; type: cell-based; conditions: for MIC: Enterococcus faecalis, ATCC29212, read-out: Minimum Inhibitory Concentration (MIC), Ef
# [16] = system: T98G; assay: cells; type: cell-based; conditions: Homo sapiens, 48 h, read-out: IC50, T98G
# [17] = system: HuTu 80, MCF-7 and human cervical carcinoma cell lines; assay: cells; type: cell-based; conditions: 120 h, read-out: IC50 range over HuTu 80, MCF-7 and human cervical carcinoma lines
# [18] = system: MCF-7; assay: cells; type: cell-based, human; conditions: for IC50: Homo sapiens, MCF7, 48 h, read-out: IC50, MCF-7
# [19] = 500 ng/mL spike, sampled 5, 15, 30 min, 1 and 2 hours; result in words
SMILES,IC50 [1] [µM],IC50 [3] [µM],IC50 [5] [µM],"Times more active than the starting SHP, M-HeLa [6] [times]",IC50 [8] [µM],IC50 [9] [µM],IC50 [10] [µM],IC50 [12] [µM],IC50 [13] [µM],IC50 [16] [µM],IC50 [17] [µM],"Times more active than the starting SHP, MCF-7 [18] [times]",IC50 [18] [µM],MIC [2] [µg/mL],MBC [2] [µg/mL],"MIC ([4]; Staphylococcus aureus, MRSA) [µg/mL]",MIC ([7]; Bacillus cereus) [µg/mL],MIC [11] [µg/mL],"Minimum bactericidal and fungicidal concentrations (MBC), (MFC), Ef [15]",MIC [15] [µg/mL],further results
"CC(C)OP(=O)(OC(C)C)C(c1cc(C(C)(C)C)c(O)c(C(C)(C)C)c1)c1ccc(Nc2c([N+](=O)[O-])cc([N+](=O)[O-])c3no[n+]([O-])c23)nc1N (centres unmarked) [4c, 7-((6-amino-5-((3,5-di-tert-butyl-4-hydroxyphenyl)(diisopropoxyphosphoryl)methyl)pyridin-2-yl)amino)-4,6-dinitrobenzo[c][1,2,5]oxadiazole 1-oxide]",1.2 ± 1,2 ± 0.1,0.9 ± 0.07,40,0.9 ± 0.07,11.2 ± 0.9,2.1 ± 0.7,2.9 ± 0.2,0.9 ± 0.08,2.2 ± 0.1,0.9 to 5.9,20,1.1 ± 0.1,,,,,,,,"Minimum Inhibitory Concentration (MIC), Sa [2]: -; Minimum Inhibitory Concentration (MIC), MRSA-2 ([4]; serial microdilution, strain resistant only to β-lactams): -; Minimum Inhibitory Concentration (MIC), Bc [7]: -; Minimum Inhibitory Concentration (MIC), MRSA-1 ([11]; serial microdilution, strain resistant to β-lactams and fluoroquinolones): -; ROS production (CellROX Deep Red fluorescence intensity) [14]: ROS production significantly exceeds that for the original phenol 2c and furoxan 3; Minimum Inhibitory Concentration (MIC), Ef [15]: -"
"COP(=O)(OC)C(c1cc(C(C)(C)C)c(O)c(C(C)(C)C)c1)c1ccc(Nc2c([N+](=O)[O-])cc([N+](=O)[O-])c3no[n+]([O-])c23)nc1Nc1c([N+](=O)[O-])cc([N+](=O)[O-])c2no[n+]([O-])c12 (centres unmarked) [5a, 7,7’-((3-((3,5-di-tert-butyl-4-hydroxyphenyl)(dimethoxyphosphoryl)methyl)pyridine-2,6-diyl)bis(azanediyl))bis(4,6-dinitrobenzo[c][1,2,5]oxadiazole 1-oxide)]",7.7 ± 0.6,11.4 ± 0.9,7.7 ± 0.6,,11 ± 0.9,13.5 ± 1.1,15.1 ± 1.7,21.6 ± 1.8,48.4 ± 3.5,26.8 ± 2.2,,,12.1 ± 1.1,125 ± 11,250 ± 19,250 ± 20,62.5 ± 5.3,250 ± 20,-,125 ± 10,"Minimum bactericidal and fungicidal concentrations (MBC), (MFC), MRSA-2 [4]: -; Minimum bactericidal and fungicidal concentrations (MBC), (MFC), Bc [7]: -; MBC [11]: 250 ± 21 µg/mL"
"CC(C)OP(=O)(OC(C)C)C(c1cc(C(C)(C)C)c(O)c(C(C)(C)C)c1)c1ccc(Nc2c([N+](=O)[O-])cc([N+](=O)[O-])c3no[n+]([O-])c23)nc1Nc1c([N+](=O)[O-])cc([N+](=O)[O-])c2no[n+]([O-])c12 (centres unmarked) [5c, 7,7’-((3-((3,5-di-tert-butyl-4-hydroxyphenyl)(diisopropoxyphosphoryl)methyl)pyridine-2,6-diyl)bis(azanediyl))bis(4,6-dinitrobenzo[c][1,2,5]oxadiazole 1-oxide)]",6.8 ± 0.5,5 ± 0.4,2.4 ± 0.2,,3.9 ± 0.3,5 ± 0.3,4.1 ± 0.8,9 ± 0.8,7.7 ± 0.6,7.7 ± 0.6,,,4.5 ± 0.4,31.3 ± 2.3,,250 ± 20,31.3 ± 2.5,62.5 ± 5.5,-,62.5 ± 5.3,"Minimum bactericidal and fungicidal concentrations (MBC), (MFC), Sa [2]: -; Minimum bactericidal and fungicidal concentrations (MBC), (MFC), MRSA-2 [4]: -; MBC ([7]; Bacillus cereus, ATCC10702, read-out: Minimum bactericidal and fungicidal concentrations (MBC), (MFC), Bc): 250 ± 20 µg/mL; Minimum bactericidal and fungicidal concentrations (MBC), (MFC), MRSA-1 [11]: -"
"CC(C)(C)c1cc(C(c2ccc(Nc3c([N+](=O)[O-])cc([N+](=O)[O-])c4no[n+]([O-])c34)nc2Nc2c([N+](=O)[O-])cc([N+](=O)[O-])c3no[n+]([O-])c23)P(=O)(Oc2ccccc2)Oc2ccccc2)cc(C(C)(C)C)c1O (centres unmarked) [5d, 7,7’-((3-((3,5-di-tert-butyl-4-hydroxyphenyl)(diphenoxyphosphoryl)methyl)pyridine-2,6-diyl)bis(azanediyl))bis(4,6-dinitrobenzo[c][1,2,5]oxadiazole 1-oxide)]",5.9 ± 0.4,8.4 ± 0.7,2,3.7,4.9 ± 0.3,2.8,9.2 ± 1.9,5.9 ± 0.5,5.2 ± 0.4,4.8 ± 0.4,0.9 to 5.9,7.6,2.1,15.6 ± 1.2,125 ± 10,250 ± 19,62.5 ± 5.4,62.5 ± 5.3,-,62.5 ± 5.2,"MBC ([4]; Staphylococcus aureus, MRSA, read-out: Minimum bactericidal and fungicidal concentrations (MBC), (MFC), MRSA-2): 250 ± 19 µg/mL; Minimum bactericidal and fungicidal concentrations (MBC), (MFC), Bc [7]: -; Biostability in whole mice blood (peak area relative to 5 min value) [19]: metabolized, but its rate is quite low; MBC [11]: 250 ± 20 µg/mL"
